Results published in the supplement of paper PMC11208160.

Experiment: recombinant barcode read abundance after kanamycin selection (control-corrected) (log10(CPM+1)); higher = more efficient recombination; sequences stand for … in AGTGCAGAGAAAATCGGCCAGTTTTCTCTGCCTGCAGTCCGCATGCCGT…AGATTTATGCAGCGGACTGCCTTTCTCCCAAAGTGATAAACCGGACAGTATCATGGACCGGTTTTCCCGGTAATCCGTATTTGCAAGGTTGGTTTCACT; site = the 11-nt target
Procedure, shortened: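 Pooled E. coli screen pairing targets with IS621 bridge RNA target-binding loops. Each oligo (promoter, target, barcode, J23119-driven first 104 bridge RNA bases) was Gibson-cloned into a vector with the remaining 73 bp and T7-inducible recombinase, then co-electroporated with a donor plasmid. Two replicates each were plated on chloramphenicol/ampicillin LB agar (control) or chloramphenicol/ampicillin/kanamycin with 0.1 mM IPTG. Recombination efficiency is recombinant-junction barcode counts as CPM, averaged, control-corrected, reported as log10(CPM+1).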
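Further: IS621 recombinase and bridge RNA in Escherichia coli cells.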

Row | Sequence | recombinant barcode read abundance (log10)
1 | CTTACTACTTGGGTTCTAACCTGTTGCCA (site TCCGGCGCTCC) | 0.0182
2 | CTTACTGCTTGGGTTCTAACCTGTTGCCT (site CTTACAGCTAG) | 0.775
3 | CTTACTGCTTGGGTTCTAACCTGTTGCCT (site CTTACCGCTAG) | 0.291
4 | CTTACTGCTTGGGTTCTAACCTGTTGCCT (site CTTACGGCTAG) | 0.295
5 | CTTACTGCTTGGGTTCTAACCTGTTGCCT (site CTTACTGCTAG) | 0.183
6 | CTTAGGGCTTGGGTTCTAACCTGTTGCCT (site CTTAGGGCTAG) | 0.419
7 | CTTAGGGCTTGGGTTCTAACCTGTTGCCT (site CTTTGTGCTAG) | 0.012
8 | CTTAGGGCTTGGGTTCTAACCTGTTGCGG (site CTAAGGGCTCC) | 2.14
9 | CTTAGGGCTTGGGTTCTAACCTGTTGCGG (site CTTAGGGCTCC) | 3.02
10 | CTTCAAGCTTGGGTTCTAACCTGTTGCCT (site CTACAAGCTAG) | 1.17
11 | CTTCAAGCTTGGGTTCTAACCTGTTGCCT (site CTCCAAGCTAG) | 0.257
12 | CTTCAAGCTTGGGTTCTAACCTGTTGCCT (site CTGCAAGCTAG) | 0.197
13 | CTTCAAGCTTGGGTTCTAACCTGTTGCCT (site CTTCAAGCTAG) | 0.983
14 | CTTCGAACTTGGGTTCTAACCTGTTGCAT (site ACATACCCTCA) | 0.609
15 | CTTCGAACTTGGGTTCTAACCTGTTGCAT (site CTTCGAACTAT) | 0.407
16 | CTTCGACCTTGGGTTCTAACCTGTTGCAT (site CTTCGACCTAT) | 2.04
17 | CTTCGACCTTGGGTTCTAACCTGTTGCAT (site CTTGGACCTCT) | 0.0729
18 | CTTCGAGCTTGGGTTCTAACCTGTTGCAG (site CTTCGAGCTCA) | 0.172
19 | CTTCGAGCTTGGGTTCTAACCTGTTGCAG (site CTTCGAGCTCC) | 0.288
20 | CTTCGAGCTTGGGTTCTAACCTGTTGCAG (site CTTCGAGCTCG) | 0.168
21 | CTTCGAGCTTGGGTTCTAACCTGTTGCAG (site CTTCGAGCTCT) | 1.35
22 | CTTCGCCCTTGGGTTCTAACCTGTTGCTT (site ACAGTGGCTCC) | 0.0481
23 | CTTCGCCCTTGGGTTCTAACCTGTTGCTT (site CTTCGCCCTAA) | 0.109
24 | CTTCGGACTTGGGTTCTAACCTGTTGCAA (site CTTCGGACTTT) | 1.62
25 | CTTCGGACTTGGGTTCTAACCTGTTGCAA (site CTTCGGGCTTT) | 0.223
26 | CTTCGGGCTTGGGTTCTAACCTGTTGCAG (site CATCGGGCTCT) | 1.25

Row | Sequence | recombinant barcode read abundance (log10)
27 | CTTCGGGCTTGGGTTCTAACCTGTTGCAG (site CCTCGGGCTCT) | 1.3
28 | CTTCGGGCTTGGGTTCTAACCTGTTGCAG (site CGTCGGGCTCT) | 0.0132
29 | CTTCGGGCTTGGGTTCTAACCTGTTGCAG (site CTTCGGGCTCT) | 1.96
30 | CTTCGTCCTTGGGTTCTAACCTGTTGCAT (site CTTCGTCCTAA) | 0.0066
31 | CTTCGTCCTTGGGTTCTAACCTGTTGCAT (site CTTCGTCCTAC) | 0.133
32 | CTTCGTCCTTGGGTTCTAACCTGTTGCAT (site CTTCGTCCTAG) | 0.139
33 | CTTCGTCCTTGGGTTCTAACCTGTTGCAT (site CTTCGTCCTAT) | 0.658
34 | CTTGAATCTTGGGTTCTAACCTGTTGCCT (site CTTAAATCTAG) | 0.117
35 | CTTGAATCTTGGGTTCTAACCTGTTGCCT (site CTTCAATCTAG) | 0.0867
36 | CTTGAATCTTGGGTTCTAACCTGTTGCCT (site CTTGAATCTAG) | 0.379
37 | CTTGAATCTTGGGTTCTAACCTGTTGCCT (site CTTTAATCTAG) | 0.337
38 | CTTGAGACTTGGGTTCTAACCTGTTGCCT (site CTTCAGGCTAG) | 0.256
39 | CTTGAGACTTGGGTTCTAACCTGTTGCCT (site CTTGAGACTAG) | 2.02
40 | CTTGGACCTTGGGTTCTAACCTGTTGCAG (site CTTCGACCTAT) | 0.00985
41 | CTTGGACCTTGGGTTCTAACCTGTTGCAG (site CTTGGACCTCT) | 2.55
42 | CTTGGACCTTGGGTTCTAACCTGTTGCCT (site CTTGGAACTAG) | 0.222
43 | CTTGGACCTTGGGTTCTAACCTGTTGCCT (site CTTGGACCTAG) | 1.74
44 | CTTGGACCTTGGGTTCTAACCTGTTGCCT (site CTTGGAGCTAG) | 0.0408
45 | CTTGGACCTTGGGTTCTAACCTGTTGCCT (site CTTGGATCTAG) | 0.113
46 | CTTGGTTCTTGGGTTCTAACCTGTTGCCT (site CTTGGGTCTAG) | 0.108
47 | CTTGGTTCTTGGGTTCTAACCTGTTGCCT (site CTTGGTTCTAG) | 0.33
48 | CTTTAAGCTTGGGTTCTAACCTGTTGCTA (site ACCGTTCCTAG) | 0.0964
49 | CTTTAAGCTTGGGTTCTAACCTGTTGCTA (site CTTTAAGCTTA) | 0.195
50 | CTTTAATCTTGGGTTCTAACCTGTTGCCT (site CTTAAATCTAG) | 0.349
51 | CTTTAATCTTGGGTTCTAACCTGTTGCCT (site CTTCAATCTAG) | 0.158
52 | CTTTAATCTTGGGTTCTAACCTGTTGCCT (site CTTGAATCTAG) | 0.0679

Row | Sequence | recombinant barcode read abundance (log10)
53 | CTTTAATCTTGGGTTCTAACCTGTTGCCT (site CTTTAATCTAG) | 0.165
54 | CTTTAGACTTGGGTTCTAACCTGTTGCAT (site CTCTAGACTAC) | 0.0162
55 | CTTTAGACTTGGGTTCTAACCTGTTGCAT (site CTTTAGACTAT) | 0.926
56 | CTTTCCTCTTGGGTTCTAACCTGTTGCCT (site CATTCCTCTAG) | 0.153
57 | CTTTCCTCTTGGGTTCTAACCTGTTGCCT (site CCTTCCTCTAG) | 0.0332
58 | CTTTCCTCTTGGGTTCTAACCTGTTGCCT (site CGTTCCTCTAG) | 0.0618
59 | CTTTCCTCTTGGGTTCTAACCTGTTGCCT (site CTTTCCTCTAG) | 0.831
60 | CTTTCCTCTTGGGTTCTAACCTGTTGCTT (site CATTACTCTAA) | 0.2
61 | CTTTCCTCTTGGGTTCTAACCTGTTGCTT (site CTTTCCTCTAA) | 0.92
62 | CTTTCGTCTTGGGTTCTAACCTGTTGCCT (site CTTTCACCTAG) | 0.0235
63 | CTTTCGTCTTGGGTTCTAACCTGTTGCCT (site CTTTCGTCTAG) | 0.0335
64 | CTTTGAGCTTGGGTTCTAACCTGTTGCAT (site CTTCGGGCTAT) | 0.0604
65 | CTTTGAGCTTGGGTTCTAACCTGTTGCAT (site CTTTGAGCTAT) | 0.632
66 | CTTTGATCTTGGGTTCTAACCTGTTGCGT (site CATCGATCTAC) | 0.0142
67 | CTTTGATCTTGGGTTCTAACCTGTTGCGT (site CTTTGATCTAC) | 1.29
68 | GAAACAGCTTGGGTTCTAACCTGTTGCCT (site GAAACAGCTAG) | 0.725
69 | GAAACAGCTTGGGTTCTAACCTGTTGCCT (site GACACAGCTAG) | 0.0141
70 | GAAACAGCTTGGGTTCTAACCTGTTGCCT (site GAGACAGCTAG) | 0.281
71 | GAAACAGCTTGGGTTCTAACCTGTTGCCT (site GATACAGCTAG) | 0.158
72 | GAAAGTCCTTGGGTTCTAACCTGTTGCCT (site GAAAATCCTAG) | 0.0602
73 | GAAAGTCCTTGGGTTCTAACCTGTTGCCT (site GAAACTCCTAG) | 0.0877
74 | GAAAGTCCTTGGGTTCTAACCTGTTGCCT (site GAAAGTCCTAG) | 0.917
75 | GAAAGTCCTTGGGTTCTAACCTGTTGCCT (site GAAATTCCTAG) | 0.0822
76 | GAAATACCTTGGGTTCTAACCTGTTGCGG (site AGCTATGCTAG) | 0.131
77 | GAAATACCTTGGGTTCTAACCTGTTGCGG (site GAAATACCTCC) | 1.41
